Some test systems named below: SK-MEL-5 melanoma; T-47D breast; A549 NSCLC; SF-539 CNS; OVCAR-8 ovarian; RPMI-8226 leukemia; HT29 colon; HCC-2998 colon; MCF7 breast; A498 renal.
Experiment in all cases: inhibition of tumour cell growth, NCI panel, 48 h

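96-well plates; 48 h exposure; 5 concentrations. Endpoints by linear interpolation between flanking doses. Not reached: highest tested concentration assigned. Here, GI50 denotes the concentration required for 50% inhibition of growth. TGI: concentration producing complete growth inhibition.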

H-QIYKKYRTWYRKAWKVLGKV-NH2: the GI50 was 2.84 µM in the assay on SK-MEL-5 melanoma; 2.06 µM in the assay on T-47D breast; 12.7 µM with A549 NSCLC; 2.21 µM with SF-539 CNS; 3.8 µM in the assay with OVCAR-8 ovarian; 6.85 µM with RPMI-8226 leukemia. Besides, the GI50 was 20.8 µM in the assay on HT29 colon and 17.5 µM with HCC-2998 colon. Besides, the TGI in the assay on SK-MEL-5 melanoma was 8.7 µM; in the assay on T-47D breast, 5.2 µM; in the assay with A549 NSCLC, 47.7 µM; in the assay on SF-539 CNS it was 4.98 µM; in the assay on OVCAR-8 ovarian, greater than 100 µM; in the assay on RPMI-8226 leukemia, 77.7 µM. The TGI is greater than 100 µM in the assay on HT29 colon and 63.4 µM in the assay with HCC-2998 colon.
Take `CC1=C(N2CC2)C(=O)c2ccccc2C1=O`: the TGI turned out to be 1.82 µM in the assay on MCF7 breast; 0.405 µM in the assay on SK-MEL-5 melanoma; 28.7 µM in the assay on T-47D breast; 2.17 µM in the assay with A549 NSCLC; 5.91 µM in the assay with SF-539 CNS; 2.82 µM with OVCAR-8 ovarian. The compound further showed a TGI with HT29 colon of 3.07 µM.
As for `Cc1ccc(S(=NS(=O)(=O)c2ccc(C)cc2)c2ccc(C)cc2)cc1`, the TGI in the assay on MCF7 breast, in the assay with T-47D breast, in the assay with A549 NSCLC, in the assay on SF-539 CNS, in the assay on OVCAR-8 ovarian and in the assay with RPMI-8226 leukemia was greater than 100 µM each time. For the same compound, in the assay with HT29 colon, the TGI was greater than 100 µM.
Regarding `CCN(CC)Cc1cc(Nc2c3ccccc3nc3cc(Cl)ccc23)ccc1O`, the GI50 in the assay with MCF7 breast was 0.96 µM; with SK-MEL-5 melanoma, 1.75 µM; with T-47D breast, 1.97 µM; with A549 NSCLC, 1.36 µM; with A498 renal it was 1.73 µM; with SF-539 CNS, 2.19 µM. In addition, the GI50 is 1.18 µM in the assay on OVCAR-8 ovarian, 2.32 µM in the assay with RPMI-8226 leukemia and 0.487 µM in the assay on HT29 colon. In addition, the TGI worked out at 2.46 µM in the assay on MCF7 breast; 3.16 µM in the assay on SK-MEL-5 melanoma; 4 µM with T-47D breast; 4.26 µM in the assay on A549 NSCLC; 3.29 µM in the assay on A498 renal; 4.58 µM in the assay with SF-539 CNS. Further, the TGI in the assay on OVCAR-8 ovarian came out at 3.83 µM; in the assay on RPMI-8226 leukemia, 6.27 µM; in the assay on HT29 colon, 1.75 µM.
On to `Cc1cc2nc(-c3c(F)cccc3Cl)n(Cc3c(F)cccc3Cl)c2cc1C`, for which the GI50 with MCF7 breast is 12.8 µM; with SK-MEL-5 melanoma it was 11.2 µM; in the assay on A549 NSCLC, 11.7 µM; in the assay on A498 renal it was 15.5 µM; in the assay with SF-539 CNS it was 17.3 µM; with OVCAR-8 ovarian it was 18.9 µM. The GI50 in the assay with RPMI-8226 leukemia is 16.3 µM; with HT29 colon, 10.5 µM; with HCC-2998 colon it was 11.2 µM. The TGI in the assay on MCF7 breast is greater than 100 µM; with SK-MEL-5 melanoma, 23.6 µM; with A549 NSCLC, 33.1 µM; with A498 renal, 32.2 µM; with SF-539 CNS it was 34.8 µM; with OVCAR-8 ovarian, 46.6 µM. The TGI is greater than 100 µM in the assay with RPMI-8226 leukemia, greater than 100 µM with HT29 colon and 23.7 µM in the assay on HCC-2998 colon.
Regarding `CNC(c1ccncc1)C(NC)c1ccncc1` (stereo not given), the TGI with MCF7 breast, with SK-MEL-5 melanoma, in the assay on T-47D breast, in the assay on A549 NSCLC, with A498 renal and in the assay with OVCAR-8 ovarian was greater than 100 µM each time. Besides, the TGI with RPMI-8226 leukemia, in the assay on HT29 colon and in the assay on HCC-2998 colon was greater than 100 µM each time.
With `NS(=O)(=O)c1ccc(NC(=O)c2cccc(NC3=C(Cl)C(=O)N(Cc4ccccc4)C3=O)c2)cc1`, the GI50 was 3.61 µM with MCF7 breast; 7.87 µM in the assay on SK-MEL-5 melanoma; 33.7 µM in the assay on T-47D breast; 21.2 µM with A549 NSCLC; 9.25 µM in the assay with A498 renal; 11.3 µM with SF-539 CNS. The GI50 with OVCAR-8 ovarian is 12.3 µM; with RPMI-8226 leukemia, 3.51 µM; in the assay with HT29 colon it was 33.3 µM. Further, the TGI in the assay on MCF7 breast is 14.6 µM; in the assay on SK-MEL-5 melanoma it was 24.1 µM; in the assay with T-47D breast, greater than 100 µM; in the assay on A549 NSCLC, 52.3 µM; in the assay on A498 renal, 23.7 µM; in the assay on SF-539 CNS, 26.7 µM. For the same compound, the results for the TGI in the assay on OVCAR-8 ovarian, in the assay with RPMI-8226 leukemia and in the assay on HT29 colon were 41.8 µM, 14.7 µM and greater than 100 µM, respectively.
On to `CCCOC(=O)C1C2CCC(O2)C1C(=O)O` (stereo not given), for which the TGI in the assay on MCF7 breast, with SK-MEL-5 melanoma, in the assay with T-47D breast, in the assay with A549 NSCLC, in the assay on A498 renal and in the assay on OVCAR-8 ovarian was greater than 100 µM in each case. The TGI in the assay on RPMI-8226 leukemia and in the assay on HT29 colon was greater than 100 µM throughout.
For `CN(C(=O)CNC(=O)/C=C/c1cccc(Cl)c1)C1CCS(=O)(=O)CC1`, the GI50 is 1.03 µM in the assay on MCF7 breast; 7.36 µM in the assay with T-47D breast; greater than 100 µM with A549 NSCLC; 0.421 µM with A498 renal; 7.28 µM in the assay with SF-539 CNS; greater than 100 µM with OVCAR-8 ovarian. The GI50 with RPMI-8226 leukemia is 14.8 µM; with HT29 colon, 0.889 µM; in the assay on HCC-2998 colon it was 0.663 µM. Further, the TGI in the assay on MCF7 breast, in the assay on T-47D breast, in the assay with A549 NSCLC, in the assay on A498 renal, in the assay with SF-539 CNS and in the assay with OVCAR-8 ovarian was greater than 100 µM each time. Further, the TGI in the assay with RPMI-8226 leukemia, with HT29 colon and with HCC-2998 colon was greater than 100 µM in each case.
For the compound `CCOC(=O)c1c(C)n(Cc2ccccc2)c2c1cc1oc(=O)c(=O)n3cnc2c13`, the GI50 was 17.7 µM in the assay with MCF7 breast; 10.4 µM in the assay on SK-MEL-5 melanoma; 13.6 µM in the assay with A549 NSCLC; 11 µM in the assay on A498 renal; 14.5 µM in the assay on SF-539 CNS; 22.8 µM in the assay on OVCAR-8 ovarian. The GI50 is 1.86 µM in the assay on RPMI-8226 leukemia and 18.3 µM in the assay on HT29 colon. Also, the TGI with MCF7 breast was greater than 50 µM; in the assay with SK-MEL-5 melanoma it was 26.7 µM; in the assay with A549 NSCLC, 45.7 µM; in the assay on A498 renal, 49.8 µM; with SF-539 CNS it was 37.8 µM; in the assay with OVCAR-8 ovarian, greater than 50 µM. Further, the results for the TGI in the assay on RPMI-8226 leukemia and in the assay on HT29 colon were 14.1 µM and greater than 50 µM, respectively.

Values taken from PubChem BioAssay (NCI).
